Measurements reported in patent publication US12600717B2, “Tricyclic compounds as inhibitors of KRAS” (Incyte Corporation, priority 2021, dated 2026).

Key:
KRAS G12D = KRAS G12D (Homo sapiens, UniProt P01116, G12D); test: GDP-GTP exchange assay (bodipy-GDP/GppNHp, SOS1), KRAS G12D; type: biochemical; details: bodipy-loaded KRAS G12D 2.5 nM, 4 hours pre-incubation with inhibitor, 2 hours after GppNHp/SOS1; read-out: G12D_exchange IC50
Experimental: (§1) The inhibitor potency of the exemplified compounds was determined in a fluorescence based guanine nucleotide exchange assay, which measures the exchange of bodipy-GDP (fluorescently labeled GDP) for GppNHp (Non-hydrolyzable GTP analog) to generate the active state of KRAS in the presence of SOS1 (guanine nucleotide exchange factor). Inhibitors were serially diluted in DMSO and a volume of 0.1 μL was transferred to the wells of a black low volume 384-well plate. 5 μL/well volume of bodipy-loaded KRAS G12D diluted to 2.5 nM in assay buffer (25 mM Hepes pH 7.5, 50 mM NaCl, 10 mM MgCl2 and 0.01% Brij-35) was added to the plate and pre-incubated with inhibitor for 4 hours at ambient temperature. Appropriate controls (enzyme with no inhibitor or with a G12D inhibitor) were included on the plate. The exchange was initiated by the addition of a 5 μL/well volume containing 1 mM GppNHp and 300 nM SOS1 in assay buffer. The 10 μL/well reaction concentration of the bodipy-loaded KRAS G12D, GppNHp, and SOS1 were 2.5 nM, 500 uM, and 150 nM, respectively. The reaction plates were incubated at ambient temperature for 2 hours, a time estimated for complete GDP-GTP exchange in the absence of inhibitor. For the KRAS G12V mutant, similar guanine nucleotide exchange assays were used with 2.5 nM as final concentration for the bodipy loaded KRAS proteins and 3 hours incubation after adding GppNHp-SOS1 mixture. A cyclic peptide described to selectively bind G12D mutant (Sakamoto et al., BBRC 484.3 (2017), 605-611) or internal compounds with confirmed binding were used as positive controls in the assay plates. Fluorescence intensities were measured on a PheraStar plate reader instrument (BMG Labtech) with excitation at 485 nm and emission at 520 nm.
(§2) Either GraphPad prism or Genedata Screener SmartFit was used to analyze the data. The IC50 values were derived by fitting the data to a four parameter logistic equation producing a sigmoidal dose-response curve with a variable Hill coefficient.
(§3) The symbol “†” indicates IC50≤100 nM, “††” indicates IC50>100 nM but ≤1 μM; and “†††” indicates IC50 is >1 μM but ≤5 μM, “††††” indicates IC50 is >5 μM but ≤10 μM. “NA” indicates IC50 not available.

KRAS G12V = KRAS G12V (Homo sapiens, UniProt P01116, G12V); test: GDP-GTP exchange assay (bodipy-GDP/GppNHp, SOS1), KRAS G12V; type: biochemical; details: bodipy-loaded KRAS G12V 2.5 nM, 3 hours incubation after adding GppNHp-SOS1; read-out: G12V_exchange IC50
Experimental: as §1, §2, §3

Sequence of KRAS G12V (P01116 1-188 isoform P01116-2 G12V): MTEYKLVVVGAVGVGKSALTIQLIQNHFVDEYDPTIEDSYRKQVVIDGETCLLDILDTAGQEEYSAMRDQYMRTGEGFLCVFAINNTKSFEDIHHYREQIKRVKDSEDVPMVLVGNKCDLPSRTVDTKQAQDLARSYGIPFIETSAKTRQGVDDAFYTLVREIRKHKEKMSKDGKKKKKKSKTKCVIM
Sequence of KRAS G12D (P01116 1-188 isoform P01116-2 G12D): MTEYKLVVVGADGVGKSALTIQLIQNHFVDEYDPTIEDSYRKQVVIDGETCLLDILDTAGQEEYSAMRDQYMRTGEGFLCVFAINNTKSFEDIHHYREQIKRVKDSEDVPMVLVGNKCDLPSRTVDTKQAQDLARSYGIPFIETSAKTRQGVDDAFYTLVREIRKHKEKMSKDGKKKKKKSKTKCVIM

SMILES | IC50 (KRAS G12D) [µM] | IC50 (KRAS G12V) [µM]
CNCCc1nc2c(N3CC(N(C)C)C3)nc3c(F)c(-c4cc(O)cc5ccccc45)c(Cc4ccc(C#N)cc4)cc3c2n1[C@@H]1[C@@H]2CN[C@H]1C2 (relative stereo) [Example 29, 4-((1-((endo)-2-azabicyclo[2.1.1]hexan-5-yl)-4-(3-(dimethylamino)azetidin-1-yl)-6-fluoro-7-(3-hydroxynaphthalen-1-yl)-2-(2-(methylamino)ethyl)-1H-imidazo[4,5-c]quinolin-8-yl)methyl)benzonitrile] | 0.1 to 1 | 5 to 10
CCc1nc2c(Oc3ccccc3)nc3c(F)c(-c4cc(O)cc5ccccc45)c(CCC#N)cc3c2n1C1C2CNC1C2 (single isomer, unassigned) [Example 24a, 3-(1-((endo)-2-Azabicyclo[2.1.1]hexan-5-yl)-2-ethyl-6-fluoro-7-(3-hydroxynaphthalen-1-yl)-4-phenoxy-1H-imidazo[4,5-c]quinolin-8-yl)propanenitrile] | ≤ 0.1 | 0.1 to 1
CN(C)C1CN(c2nc3c(F)c(-c4cc(O)cc5ccccc45)c(CCC#N)cc3c3c2nc(-c2ccn(-c4ccccc4)n2)n3C2C3CNC2C3)C1 (single isomer, unassigned) [Example 34a, 3-(1-((endo)-2-azabicyclo[2.1.1]hexan-5-yl)-4-(3-(dimethylamino)azetidin-1-yl)-6-fluoro-7-(3-hydroxynaphthalen-1-yl)-2-(1-phenyl-1H-pyrazol-3-yl)-1H-imidazo[4,5-c]quinolin-8-yl)propanenitrile] | ≤ 0.1 | ≤ 0.1
CCc1nc2c(-c3ccc(C(=O)NC)nc3)nc3c(F)c(-c4cc(O)cc5ccccc45)c(CCC#N)cc3c2n1C1C2CNC1C2 (single isomer, unassigned) [Example 19a, 5-(1-((endo)-2-Azabicyclo[2.1.1]hexan-5-yl)-8-(2-cyanoethyl)-2-ethyl-6-fluoro-7-(3-hydroxynaphthalen-1-yl)-1H-imidazo[4,5-c]quinolin-4-yl)-N-methylpicolinamide] | ≤ 0.1 | ≤ 0.1
CCc1nc2c(-c3ccc(=O)n(CC)c3)nc3c(F)c(-c4cc(O)cc5ccccc45)c(CCC#N)cc3c2n1C1C2CNC1C2 (single isomer, unassigned) [Example 18, 3-(1-((endo)-2-Azabicyclo[2.1.1]hexan-5-yl)-2-ethyl-4-(1-ethyl-6-oxo-1,6-dihydropyridin-3-yl)-6-fluoro-7-(3-hydroxynaphthalen-1-yl)-1H-imidazo[4,5-c]quinolin-8-yl)propanenitrile] | ≤ 0.1 | ≤ 0.1
CN(C)C(=O)CCc1nc2c(N3CC(N(C)C)C3)nc3c(-c4cnn(-c5ccccn5)c4)c(-c4cc(O)cc5ccccc45)c(CCC#N)cc3c2n1C1C2CNC1C2 (stereo not drawn) [Example 13, 3-(1-((endo)-2-azabicyclo[2.1.1]hexan-5-yl)-8-(2-cyanoethyl)-4-(3-(dimethylamino)azetidin-1-yl)-7-(3-hydroxynaphthalen-1-yl)-6-(1-(pyridin-2-yl)-1H-pyrazol-4-yl)-1H-imidazo[4,5-c]quinolin-2-yl)-N,N-dimethylpropanamide] | 0.1 to 1 | 5 to 10
CN(C)C1CN(c2nc3c(F)c(-c4cc(O)cc5ccccc45)c(CCC#N)cc3c3c2nc(-c2cn(C4CCNCC4)nn2)n3C2C3CNC2C3)C1 (single isomer, unassigned) [Example 26a, 3-(1-((endo)-2-Azabicyclo[2.1.1]hexan-5-yl)-4-(3-(dimethylamino)azetidin-1-yl)-6-fluoro-7-(3-hydroxynaphthalen-1-yl)-2-(1-(piperidin-4-yl)-1H-1,2,3-triazol-4-yl)-1H-imidazo[4,5-c]quinolin-8-yl)propanenitrile] | ≤ 0.1 | ≤ 0.1
CCc1nc2c(-c3ccn4ncnc4c3)nc3c(F)c(-c4cc(O)cc5ccccc45)c(CCC#N)cc3c2n1C1C2CNC1C2 (single isomer, unassigned) [Example 21a, 3-(4-([1,2,4]Triazolo[1,5-a]pyridin-7-yl)-1-((endo)-2-azabicyclo[2.1.1]hexan-5-yl)-2-ethyl-6-fluoro-7-(3-hydroxynaphthalen-1-yl)-1H-imidazo[4,5-c]quinolin-8-yl)propanenitrile] | ≤ 0.1 | ≤ 0.1
Cc1cc2c(nc(N3CC(N(C)C)C3)c3nc(CCC(=O)N4CCN(c5ncccn5)CC4)n(C4C5CNC4C5)c32)c(F)c1-c1cc(O)cc2ccccc12 (single isomer, unassigned) [Example 2a, 3-(1-((endo)-2-azabicyclo[2.1.1]hexan-5-yl)-4-(3-(dimethylamino)azetidin-1-yl)-6-fluoro-7-(3-hydroxynaphthalen-1-yl)-8-methyl-1H-imidazo[4,5-c]quinolin-2-yl)-1-(4-(pyrimidin-2-yl)piperazin-1-yl)propan-1-one] | ≤ 0.1 | 1 to 5

Next, values leading:

IC50 (KRAS G12D) [µM] | IC50 (KRAS G12V) [µM] | SMILES
≤ 0.1 | ≤ 0.1 | CC(=O)N1CC[C@H](n2nnc3c(O[C@@H](C)[C@@H]4CCCN4C)nc4c(F)c(-c5cccc6cccc(C#N)c56)c(Cl)cc4c32)C[C@H]1CC#N [Example 44, 8-(1-((2S,4S)-1-acetyl-2-(cyanomethyl)piperidin-4-yl)-8-chloro-6-fluoro-4-((S)-1-((S)-1-methylpyrrolidin-2-yl)ethoxy)-1H-[1,2,3]triazolo[4,5-c]quinolin-7-yl)-1-naphthonitrile]
≤ 0.1 | ≤ 0.1 | CCn1ccc(-c2nc3c(N4CC(N(C)C)C4)nc4c(F)c(-c5cc(O)cc6ccccc56)c(CCC#N)cc4c3n2C2C3CNC2C3)n1 (single isomer, unassigned) [Example 35a, 3-(1-((endo)-2-azabicyclo[2.1.1]hexan-5-yl)-4-(3-(dimethylamino)azetidin-1-yl)-2-(1-ethyl-1H-pyrazol-3-yl)-6-fluoro-7-(3-hydroxynaphthalen-1-yl)-1H-imidazo[4,5-c]quinolin-8-yl)propanenitrile]
≤ 0.1 | ≤ 0.1 | C[C@H](Oc1nc2c(F)c(-c3cccc4cccc(C#N)c34)c(Cl)cc2c2c1ncn2[C@H]1CCN(C(N)=O)[C@H](CC#N)C1)[C@@H]1CCCN1C [Example 42, (2S,4S)-4-(8-chloro-7-(8-cyanonaphthalen-1-yl)-6-fluoro-4-((S)-1-((S)-1-methylpyrrolidin-2-yl)ethoxy)-1H-imidazo[4,5-c]quinolin-1-yl)-2-(cyanomethyl)piperidine-1-carboxamide]
0.1 to 1 | ≤ 0.1 | C[C@H](Oc1nc2c(F)c(-c3cccc4cccc(C#N)c34)c(Cl)cc2c2c1ncn2[C@H]1CCN(C(=O)c2nc[nH]n2)[C@H](CC#N)C1)[C@@H]1CCCN1C [Example 41, 8-(8-chloro-1-((2S,4S)-2-(cyanomethyl)-1-(1H-1,2,4-triazole-3-carbonyl)piperidin-4-yl)-6-fluoro-4-((S)-1-((S)-1-methylpyrrolidin-2-yl)ethoxy)-1H-imidazo[4,5-c]quinolin-7-yl)-1-naphthonitrile]
0.1 to 1 | ≤ 0.1 | CN(C)C1CN(c2nc3c(F)c(-c4cc(O)cc5ccccc45)c(CCC#N)cc3c3c2nc(-c2ccn(Cc4ccccc4)n2)n3C2C3CNC2C3)C1 (single isomer, unassigned) [Example 36a, 3-(2-(1-benzyl-1H-pyrazol-3-yl)-1-((endo)-2-azabicyclo[2.1.1]hexan-5-yl)-4-(3-(dimethylamino)azetidin-1-yl)-6-fluoro-7-(3-hydroxynaphthalen-1-yl)-1H-imidazo[4,5-c]quinolin-8-yl)propanenitrile]
